Measured values from US11629171B2, “Beta-hairpin peptidomimetics” (POLYPHOR AG, priority 2017, dated 2023).
Converted amounts (≈) assume the structure as drawn. Where a SMILES comes first, the peptide text is derived from it. Bridges are numbered along the chain shown (N, C = ends). Roman numbers before positions name the chains, in order. [ ]: non-standard residue; d: D form. The star is where a group is joined. Pen = CC(C)(S)[C@H](N)C(=O)O; Tle = CC(C)(C)[C@H](N)C(=O)O; Hiv = CC(C)[C@H](O)C(=O)O; dDab = NCC[C@@H](N)C(=O)O; NHCH(CH2OH)2 = OCC(CO)N*; Orn = NCCC[C@H](N)C(=O)O; Dab = NCC[C@H](N)C(=O)O; Dap = NC[C@H](N)C(=O)O

Assays:
Assay type in all cases: cell-based
[1] = tested on: Acinetobacter baumannii 872842; conditions: 872842
Summary of the method: (§1)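 Standard CLSI microdilution testing: bacterial suspensions standardized against 0.5 McFarland to about 10^6 CFU/mL in MH-II broth meet serially halved peptide concentrations in broth containing 0.002% polysorbate 80; incubation lasts 18-20 h at 35° C before the MIC is scored.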

[2] = tested on: Acinetobacter baumannii DSM 30008; conditions: DSM 30008
Summary of the method: as §1

[3] = tested on: Enterobacter cloacae 848840; conditions: 848840
Summary of the method: as §1

Escherichia coli 926415 = conditions: 926415
Summary of the method: as §1

[4] = tested on: Escherichia coli ATCC 25922; conditions: ATCC 25922
Summary of the method: as §1

[5] = tested on: Klebsiella pneumoniae 968733; conditions: 968733
Summary of the method: as §1

[6] = tested on: Klebsiella pneumoniae SSI #3010; conditions: SSI #3010
Summary of the method: as §1

[7] = tested on: Pseudomonas aeruginosa ATCC 27853; conditions: ATCC 27853
Summary of the method: as §1

[8] = tested on: human red blood cells (hRBC); assay: Hemolysis; conditions: red cells of human, 1 h, 200
Summary of the method: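 Percent lysis of human red cells was derived from OD540 of the supernatant, referenced to 2% Triton X-100, after a 1 h, 37° C incubation of 20% (v/v) cells with 200 μg/mL peptide.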

MIC [1] | MIC [2] | MIC [3] | MIC (Escherichia coli 926415) | MIC [4] | MIC [5] | MIC [6] | MIC [7] | Acinetobacter baumannii DSM 30008 MIC [2] | Escherichia coli ATCC 25922 MIC [4] | Klebsiella pneumoniae SSI #3010 MIC [6] | Pseudomonas aeruginosa ATCC 27853 MIC [7] | Structure (SMILES) | Hemolysis at 200 μg/mL [8]
0.0625 µg/mL (≈ 0.0254 µM) | 0.0625 µg/mL (≈ 0.0254 µM) | 0.125 µg/mL (≈ 0.0509 µM) | 0.125 µg/mL (≈ 0.0509 µM) | 0.03125 µg/mL (≈ 0.0127 µM) | 0.25 µg/mL (≈ 0.102 µM) | 0.125 µg/mL (≈ 0.0509 µM) | 0.125 µg/mL (≈ 0.0509 µM) |  |  |  |  | CC(=O)N[C@H](C(=O)N[C@H](C(=O)N[C@@H](Cc1ccc(O)cc1)C(=O)N[C@H]1CSSC(C)(C)[C@@H](C(=O)N[C@H](C(=O)N[C@@H](CO)C(=O)N[C@H](C(N)=O)[C@@H](C)O)C(C)(C)C)NC(=O)[C@H](Cc2c[nH]c3ccccc23)NC(=O)[C@H](CCN)NC(=O)[C@@H](CCN)NC(=O)[C@H](CCC(=O)N[C@@H](CCN)C(=O)N[C@H](C(=O)N[C@@H](CN)C(=O)N[C@H]2CCNC(=O)[C@H]([C@@H](C)O)NC(=O)[C@H](CCN)NC(=O)[C@H](CCN)NC(=O)[C@H]([C@@H](C)O)NC(=O)[C@@H](CC(C)C)NC(=O)[C@H](CCN)NC2=O)[C@@H](C)O)NC1=O)[C@@H](C)O)C(C)C [Ex. 224] (I: Ac-VTYCE[dDab][Dab]W[Pen][Tle]ST-NH2 / II: [Dab]T[Dap][Dab][Dab][dL]T[Dab][Dab]T; disulfide I:4-I:9; amide I:5-II:N; lactam II:4-II:C) | 1%
0.5 µg/mL (≈ 0.207 µM) |  | 1 µg/mL (≈ 0.413 µM) | 1 µg/mL (≈ 0.413 µM) |  | 1 µg/mL (≈ 0.413 µM) |  |  | 0.25 µg/mL | 0.0625 µg/mL | 0.0625 µg/mL | 0.25 µg/mL | CC(=O)N[C@H](C(=O)N[C@H]1CCN(C)C(=O)CC[C@@H](C(=O)N[C@@H](CO)C(N)=O)NC(=O)[C@H](C(C)C)NC(=O)[C@H](CO)NC(=O)[C@H](Cc2c[nH]c3ccccc23)NC(=O)[C@H](CO)NC(=O)[C@@H](CCN)NC(=O)[C@H](CCC(=O)N[C@@H](CCN)C(=O)N[C@H](C(=O)N[C@@H](CN)C(=O)N[C@H]2CCNC(=O)[C@H]([C@@H](C)O)NC(=O)[C@H](CCN)NC(=O)[C@H](CCN)NC(=O)[C@H](CC(C)C)NC(=O)[C@@H](CC(C)C)NC(=O)[C@H](CCN)NC2=O)[C@@H](C)O)NC(=O)[C@H](CCN)NC(=O)[C@H](Cc2ccc(O)cc2)NC1=O)C(C)C [Ex. 303] | <1%
0.5 µg/mL (≈ 0.213 µM) | 0.125 µg/mL (≈ 0.0532 µM) | 1 µg/mL (≈ 0.426 µM) | 1 µg/mL (≈ 0.426 µM) | 0.0625 µg/mL (≈ 0.0266 µM) | 4 µg/mL (≈ 1.7 µM) | 0.25 µg/mL (≈ 0.106 µM) | 0.125 µg/mL (≈ 0.0532 µM) |  |  |  |  | CC(=O)N[C@H](C(=O)N[C@H]1CC(=O)NCC[C@@H](C(=O)N[C@@H](CO)C(N)=O)NC(=O)[C@H](C(C)C)NC(=O)[C@H](CO)NC(=O)[C@H](Cc2c[nH]c3ccccc23)NC(=O)CNC(=O)[C@@H](CCN)NC(=O)[C@H](CCC(=O)N[C@@H](CCN)C(=O)N[C@H](C(=O)N[C@@H](CN)C(=O)N[C@H]2CCNC(=O)[C@H]([C@@H](C)O)NC(=O)[C@H](CCN)NC(=O)[C@H](CCN)NC(=O)[C@H](CC(C)C)NC(=O)[C@@H](CC(C)C)NC(=O)[C@H](CCN)NC2=O)[C@@H](C)O)NC(=O)[C@H](CO)NC(=O)[C@H](Cc2ccc(O)cc2)NC1=O)C(C)C [Ex. 292] (I: Ac-VDYSE[dDab]GWSV[Dab]S-NH2 / II: [Dab]T[Dap][Dab][Dab][dL]L[Dab][Dab]T; lactam I:2-I:11, II:4-II:C; amide I:5-II:N) | <1%
0.125 µg/mL (≈ 0.0534 µM) | 0.0625 µg/mL (≈ 0.0267 µM) | 4 µg/mL (≈ 1.71 µM) | 0.25 µg/mL (≈ 0.107 µM) | 0.125 µg/mL (≈ 0.0534 µM) | 2 µg/mL (≈ 0.854 µM) | 0.125 µg/mL (≈ 0.0534 µM) | 0.5 µg/mL (≈ 0.213 µM) |  |  |  |  | CC(C)C[C@@H]1NC(=O)[C@@H](CC(C)C)NC(=O)[C@H](CCN)NC(=O)[C@@H](NC(=O)[C@H](CN)NC(=O)[C@@H](NC(=O)[C@H](CCN)NC(=O)CC[C@@H]2NC(=O)CNC(=O)[C@H](CCCN)NC(=O)[C@H](CCN)NC(=O)[C@H](Cc3ccc(O)cc3)NC(=O)[C@@H](NC(=O)[C@@H](O)C(C)C)CSSC[C@@H](C(=O)NC(CO)CO)NC(=O)[C@H](C(C)(C)C)NC(=O)[C@H](CO)NC(=O)[C@H](Cc3c[nH]c4ccccc34)NC2=O)[C@@H](C)O)CCNC(=O)[C@H]([C@@H](C)O)NC(=O)[C@H](CCN)NC(=O)[C@H](CCN)NC1=O [Ex. 173] (I: H-[Hiv]CY[Dab][Orn]GEWS[Tle]C-{NHCH(CH2OH)2} / II: [Dab]T[Dap][Dab][Dab][dL]L[Dab][Dab]T; disulfide I:2-I:11; amide I:7-II:N; lactam II:4-II:C) | <1%
